Measurements published in ChEMBL document CHEMBL3046339, “Insecticidal activity of Maytenus species (Celastraceae) nortriterpene quinone methides against codling moth, Cydia pomonella (L.) (Lepidoptera: tortricidae)” (2000).

Tests used:
Format in all cases: functional
Cydia pomonella [1] = assay: Insecticidal activity against Cydia pomonella (codling moth) at 20 mg/kg assessed as growth regulation measured as number of head capsules of larvae after 5 days of continuous exposure (reference value: 0.2 +/- 0.2%)
Cydia pomonella [2] = assay: Insecticidal activity against Cydia pomonella (codling moth) assessed as mortality at 80 mg/kg diet topically measured after 5 days of continuous exposure (reference value: 0%); settings: topical, 120 h
Cydia pomonella [3] = assay: Antifeedant activity against Cydia pomonella (codling moth) at 20 mg/kg diet topically measured after 10 days of continuous exposure (reference value: 6.7 +/- 6.7%)
Cydia pomonella [4] = assay: Insecticidal activity against Cydia pomonella (codling moth) assessed as mortality at 20 mg/kg diet topically measured after 5 days of continuous exposure (reference value: 0%); settings: topical, 120 h
Cydia pomonella [5] = assay: Insecticidal activity against Cydia pomonella (codling moth) at 20 mg/kg assessed as growth regulation measured as number of head capsules of larvae after 10 days of continuous exposure Rvb = (1.5 +/- 0.2%)
Cydia pomonella [6] = assay: Antifeedant activity against Cydia pomonella (codling moth) at 40 mg/kg diet topically measured after 5 days of continuous exposure (reference value: 6.7 +/- 6.7%)
Cydia pomonella [7] = assay: Insecticidal activity against Cydia pomonella (codling moth) at 40 mg/kg assessed as growth regulation measured as number of head capsules of larvae after 10 days of continuous exposure Rvb = (1.5 +/- 0.2%)
Cydia pomonella [8] = assay: Insecticidal activity against Cydia pomonella (codling moth) at 80 mg/kg assessed as growth regulation measured as number of head capsules of larvae after 5 days of continuous exposure (reference value: 0.2 +/- 0.2%)
Cydia pomonella [9] = assay: Insecticidal activity against Cydia pomonella (codling moth) assessed as mortality at 80 mg/kg diet topically measured after 10 days of continuous exposure (reference value: 3.3 +/- 3.3%); settings: topical, 240 h
Cydia pomonella [10] = assay: Insecticidal activity against Cydia pomonella (codling moth) assessed as mortality at 20 mg/kg diet topically measured after 10 days of continuous exposure (reference value: 3.3 +/- 3.3%); settings: topical, 240 h
Cydia pomonella [11] = assay: Antifeedant activity against Cydia pomonella (codling moth) at 80 mg/kg diet topically measured after 10 days of continuous exposure (reference value: 6.7 +/- 6.7%)
Cydia pomonella [12] = assay: Insecticidal activity against Cydia pomonella (codling moth) at 80 mg/kg assessed as growth regulation measured as number of head capsules of larvae after 10 days of continuous exposure Rvb = (1.5 +/- 0.2%)
Cydia pomonella [13] = assay: Antifeedant activity against Cydia pomonella (codling moth) at 80 mg/kg diet topically measured after 5 days of continuous exposure (reference value: 6.7 +/- 6.7%)
Cydia pomonella [14] = assay: Insecticidal activity against Cydia pomonella (codling moth) assessed as mortality at 40 mg/kg diet topically measured after 5 days of continuous exposure (reference value: 0%); settings: topical, 120 h
Cydia pomonella [15] = assay: Antifeedant activity against Cydia pomonella (codling moth) at 20 mg/kg diet topically measured after 5 days of continuous exposure (reference value: 6.7 +/- 6.7%)
Cydia pomonella [16] = assay: Insecticidal activity against Cydia pomonella (codling moth) at 40 mg/kg assessed as growth regulation measured as number of head capsules of larvae after 5 days of continuous exposure (reference value: 0.2 +/- 0.2%)
Cydia pomonella [17] = assay: Insecticidal activity against Cydia pomonella (codling moth) assessed as mortality at 40 mg/kg diet topically measured after 10 days of continuous exposure (reference value: 3.3 +/- 3.3%); settings: topical, 240 h
Cydia pomonella [18] = assay: Antifeedant activity against Cydia pomonella (codling moth) at 40 mg/kg diet topically measured after 10 days of continuous exposure (reference value: 6.7 +/- 6.7%)
Cydia pomonella [19] = assay: Antifeedant activity against Cydia pomonella (codling moth) at 2 mg/kg diet topically measured after 5 days of continuous exposure (reference value: 30 +/-20.9%)
Cydia pomonella [20] = assay: Insecticidal activity against Cydia pomonella (codling moth) assessed as mortality at 2 mg/kg diet topically measured after 10 days of continuous exposure (reference value: 43.3 +/- 26%); settings: topical, 240 h
Cydia pomonella [21] = assay: Insecticidal activity against Cydia pomonella (codling moth) at 20 mg/kg assessed as growth regulation measured as number of head capsules of larvae after 10 days of continuous exposure (reference value: 1.3 +/- 0.3%)
Cydia pomonella [22] = assay: Insecticidal activity against Cydia pomonella (codling moth) assessed as mortality at 2 mg/kg diet topically measured after 5 days of continuous exposure (reference value: 23.3 +/- 18.5%); settings: topical, 120 h
Cydia pomonella [23] = assay: Antifeedant activity against Cydia pomonella (codling moth) at 20 mg/kg diet topically measured after 5 days of continuous exposure (reference value: 30 +/-20.9%)
Cydia pomonella [24] = assay: Antifeedant activity against Cydia pomonella (codling moth) at 20 mg/kg diet topically measured after 10 days of continuous exposure (reference value: 30 +/-20.9%)
Cydia pomonella [25] = assay: Insecticidal activity against Cydia pomonella (codling moth) at 2 mg/kg assessed as growth regulation measured as number of head capsules of larvae after 10 days of continuous exposure (reference value: 1.3 +/- 0.3%)
Cydia pomonella [26] = assay: Insecticidal activity against Cydia pomonella (codling moth) at 20 mg/kg assessed as growth regulation measured as number of head capsules of larvae after 5 days of continuous exposure (reference value: 0.3 +/- 0.3%)
Cydia pomonella [27] = assay: Insecticidal activity against Cydia pomonella (codling moth) assessed as mortality at 20 mg/kg diet topically measured after 10 days of continuous exposure (reference value: 43.3 +/- 26%); settings: topical, 240 h
Cydia pomonella [28] = assay: Insecticidal activity against Cydia pomonella (codling moth) assessed as mortality at 20 mg/kg diet topically measured after 5 days of continuous exposure (reference value: 23.3 +/- 18.5%); settings: topical, 120 h
Cydia pomonella [29] = assay: Antifeedant activity against Cydia pomonella (codling moth) at 2 mg/kg diet topically measured after 10 days of continuous exposure (reference value: 30 +/-20.9%)
Cydia pomonella [30] = assay: Insecticidal activity against Cydia pomonella (codling moth) at 2 mg/kg assessed as growth regulation measured as number of head capsules of larvae after 5 days of continuous exposure (reference value: 0.3 +/- 0.3%)

| Compound | Activity (Cydia pomonella [1]) | mortality at 80 mg/kg (Cydia pomonella [2]) | Activity (Cydia pomonella [3]) | mortality at 20 mg/kg (Cydia pomonella [4]) | Activity (Cydia pomonella [5]) | Activity (Cydia pomonella [6]) | Activity (Cydia pomonella [7]) | Activity (Cydia pomonella [8]) | mortality at 80 mg/kg (Cydia pomonella [9]) | mortality at 20 mg/kg (Cydia pomonella [10]) | Activity (Cydia pomonella [11]) | Activity (Cydia pomonella [12]) | Activity (Cydia pomonella [13]) | mortality at 40 mg/kg (Cydia pomonella [14]) | Activity (Cydia pomonella [15]) | Activity (Cydia pomonella [16]) | mortality at 40 mg/kg (Cydia pomonella [17]) | Activity (Cydia pomonella [18]) | also measured |
| --- | --- | --- | --- | --- | --- | --- | --- | --- | --- | --- | --- | --- | --- | --- | --- | --- | --- | --- | --- |
| COC(=O)[C@]1(C)CC[C@]2(C)CC[C@]3(C)C4=CC=C5C(=CC(=O)C(O)=C5C)[C@]4(C)CC[C@@]3(C)[C@@H]2C1 [PRISTIMERIN] | 0 | 90% | 93.3% | 20% | 0 | 83.3% | 0 | 0 | 100% | 60% | 90% | 0 | 90% | 33.3% | 96.7% | 0 | 60% | 83.3% |  |
| CC1=C(O)C(=O)C=C2C1=CC=C1[C@@]2(C)CC[C@@]2(C)[C@@H]3C[C@@H](C)C(=O)C[C@]3(C)CC[C@]12C [TINGENONE] | 0.7 | 13.3% | 0% | 0% | 3 | 10% | 1.4 | 0 | 23.3% | 0% | 93.3% | 0 | 100% | 3.3% | 0% | 0.3 | 10% | 3.3% |  |
| C/C=C(\C)C(=O)O[C@H]1C[C@@H](OC(C)=O)[C@@]2(C(=O)OC)CO[C@H]3[C@@H](O)[C@@](C)([C@]45O[C@@]4(C)[C@@H]4C[C@H]5O[C@@H]5OC=C[C@@]54O)[C@H]4[C@]1(CO[C@]4(O)C(=O)OC)[C@@H]32 [AZADIRACHTIN A] |  |  |  |  |  |  |  |  |  |  |  |  |  |  |  |  |  |  | Activity (Cydia pomonella [19]): 76.7%; mortality at 2 mg/kg (Cydia pomonella [20]): 66.7%; Activity (Cydia pomonella [21]): 0; mortality at 2 mg/kg (Cydia pomonella [22]): 50%; Activity (Cydia pomonella [23]): 100%; Activity (Cydia pomonella [24]): 100%; Activity (Cydia pomonella [25]): 0.3; Activity (Cydia pomonella [26]): 0; mortality at 20 mg/kg (Cydia pomonella [27]): 100%; mortality at 20 mg/kg (Cydia pomonella [28]): 100%; Activity (Cydia pomonella [29]): 70%; Activity (Cydia pomonella [30]): 0 |
